# Like-named read-outs stand apart in the source and are kept apart here.
# Assays:
# [1] = tested on: 60 cancer cell lines (NCI 60 cancer cell line series); experiment: NCI-DTP in vitro cancer screen, sulforhodamine B (SRB) growth inhibition, 48 hour exposure; assay type: cell-based, human
# In short: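 Potency is given as mean −log{GI50} from dose–response curves, manually binned into Low, Medium or High sensitivity. Sixty NCI-DTP tumour lines were treated 48 h with a duplicate, five-dose, ten-fold dilution series, and growth read by SRB staining of cell mass.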
# [2] = tested on: 60 cancer cell lines (NCI 60 cancer cell line series); details: cited from earlier work
compound,measurement,setting,value
COc1cccc2c1C(=O)c1c(O)c3c(c(O)c1C2=O)C[C@@](O)(C(=O)CO)C[C@@H]3OC1CC(N)CC(C)O1.Cl (stereo partly shown) [Deoxydoxorubicin],"classification of cell line as Low(1), Medium(2), High(3) sensitivity to compound",[1]; Breast BT-549 CL5013,2
same,"classification of cell line as Low(1), Medium(2), High(3) sensitivity to compound",[1]; Breast MCF7/ADRr CL5002,1
same,"classification of cell line as Low(1), Medium(2), High(3) sensitivity to compound",[1]; Breast MDA-N CL5012,2
same,"classification of cell line as Low(1), Medium(2), High(3) sensitivity to compound",[1]; CNS SF-268 CL12014,2
same,"classification of cell line as Low(1), Medium(2), High(3) sensitivity to compound",[1]; CNS SF-295 CL12015,2
same,"classification of cell line as Low(1), Medium(2), High(3) sensitivity to compound",[1]; CNS SF-539 CL12016,2
same,"classification of cell line as Low(1), Medium(2), High(3) sensitivity to compound",[1]; CNS SNB-19 CL12002,2
same,"classification of cell line as Low(1), Medium(2), High(3) sensitivity to compound",[1]; CNS SNB-75(I) CL12005,2
same,"classification of cell line as Low(1), Medium(2), High(3) sensitivity to compound",[1]; CNS U251(I) CL12009,2
same,"classification of cell line as Low(1), Medium(2), High(3) sensitivity to compound",[1]; Colon COLO-250 CL4010,2
same,"classification of cell line as Low(1), Medium(2), High(3) sensitivity to compound",[1]; Colon HCT-15 CL4015,1
same,"classification of cell line as Low(1), Medium(2), High(3) sensitivity to compound",[1]; Colon HT29(I) CL4001,2
same,"classification of cell line as Low(1), Medium(2), High(3) sensitivity to compound",[1]; Colon KM12 CL4017,2
same,"classification of cell line as Low(1), Medium(2), High(3) sensitivity to compound",[1]; Leukemia CCRF-CEM(I) CL7003,2
same,"classification of cell line as Low(1), Medium(2), High(3) sensitivity to compound",[1]; Leukemia K562(I) CL7005,2
same,"classification of cell line as Low(1), Medium(2), High(3) sensitivity to compound",[1]; Leukemia RPMI-8226(I) CL7010,2
same,"classification of cell line as Low(1), Medium(2), High(3) sensitivity to compound",[1]; Leukemia SR CL7019,3
same,"classification of cell line as Low(1), Medium(2), High(3) sensitivity to compound",[1]; Melanoma LOX IMVI CL10001,2
same,"classification of cell line as Low(1), Medium(2), High(3) sensitivity to compound",[1]; Melanoma M14 CL10014,2
same,"classification of cell line as Low(1), Medium(2), High(3) sensitivity to compound",[1]; Melanoma MALME-3M CL10002,2
same,"classification of cell line as Low(1), Medium(2), High(3) sensitivity to compound",[1]; Melanoma SK-MEL-28 CL10008,1
same,sensitivity classification Low(1)/Medium(2)/High(3),[1]; NSCLC NCI-H23(I) CL1001,2
same,sensitivity classification Low(1)/Medium(2)/High(3),[1]; NSCLC NCI-H522 CL1003,2
same,sensitivity classification Low(1)/Medium(2)/High(3),[1]; Ovarian IGROV1 CL6010,2
same,sensitivity classification Low(1)/Medium(2)/High(3),[1]; Ovarian OVCAR-3 CL6001,2
same,sensitivity classification Low(1)/Medium(2)/High(3),[1]; Ovarian OVCAR-4 CL6002,2
same,sensitivity classification Low(1)/Medium(2)/High(3),[1]; Ovarian OVCAR-8 CL6005,2
same,sensitivity classification Low(1)/Medium(2)/High(3),[1]; Ovarian SK-OV-3 CL6011,2
same,sensitivity classification Low(1)/Medium(2)/High(3),[1]; Prostate DU-145 CL11003,2
same,sensitivity classification Low(1)/Medium(2)/High(3),[1]; Prostate PC-3(I) CL11001,2
same,sensitivity classification Low(1)/Medium(2)/High(3),[1]; Renal A498 CL9013,2
same,sensitivity classification Low(1)/Medium(2)/High(3),[1]; Renal SN12C CL9008,2
same,sensitivity classification Low(1)/Medium(2)/High(3),[1]; Renal TK10 CL9024,1
same,sensitivity classification Low(1)/Medium(2)/High(3),[1]; Renal UO-31 CL9004,1
same,−Log (GI50),[2]; CNS SF-268 CL12014,7.3
same,−Log (GI50),[2]; CNS U251(I) CL12009,7.6
same,−Log (GI50),[2]; Colon HT29(I) CL4001,7.5
same,−Log (GI50),[2]; Melanoma UACC-62 CL10020,7.6
same,−Log (GI50),[2]; NSCLC HOP-92 CL1029,7.4
same,−Log (GI50),[2]; Ovarian SK-OV-3 CL6011,7.3
same,−Log (GI50),[2]; Prostate DU-145 CL11003,7.6
COc1cc([C@@H]2c3cc4c(cc3[C@@H](O[C@@H]3O[C@@H]5CO[C@@H](C)O[C@H]5[C@H](O)[C@H]3O)[C@H]3COC(=O)[C@H]23)OCO4)cc(OC)c1O [Etoposide],"classification of cell line as Low(1), Medium(2), High(3) sensitivity to compound",[1]; Breast BT-549 CL5013,2
same,"classification of cell line as Low(1), Medium(2), High(3) sensitivity to compound",[1]; Breast HS-578T CL5006,3
same,"classification of cell line as Low(1), Medium(2), High(3) sensitivity to compound",[1]; Breast MCF7(I) CL5001,2
same,"classification of cell line as Low(1), Medium(2), High(3) sensitivity to compound",[1]; Breast MCF7/ADRr CL5002,1
same,"classification of cell line as Low(1), Medium(2), High(3) sensitivity to compound",[1]; Breast MDA-MB-231 CL5005,2
same,"classification of cell line as Low(1), Medium(2), High(3) sensitivity to compound",[1]; Breast MDA-MB-435 CL5011,2
same,"classification of cell line as Low(1), Medium(2), High(3) sensitivity to compound",[1]; Breast MDA-N CL5012,3
same,"classification of cell line as Low(1), Medium(2), High(3) sensitivity to compound",[1]; Breast T-47D CL5014,3
same,"classification of cell line as Low(1), Medium(2), High(3) sensitivity to compound",[1]; CNS SF-268 CL12014,2
same,"classification of cell line as Low(1), Medium(2), High(3) sensitivity to compound",[1]; CNS SF-295 CL12015,2
same,"classification of cell line as Low(1), Medium(2), High(3) sensitivity to compound",[1]; CNS SF-539 CL12016,2
same,"classification of cell line as Low(1), Medium(2), High(3) sensitivity to compound",[1]; CNS SNB-19 CL12002,2
same,"classification of cell line as Low(1), Medium(2), High(3) sensitivity to compound",[1]; CNS SNB-75(I) CL12005,2
same,"classification of cell line as Low(1), Medium(2), High(3) sensitivity to compound",[1]; CNS U251(I) CL12009,2
same,"classification of cell line as Low(1), Medium(2), High(3) sensitivity to compound",[1]; Colon COLO-250 CL4010,1
same,"classification of cell line as Low(1), Medium(2), High(3) sensitivity to compound",[1]; Colon HCC-2998 CL4002,2
same,"classification of cell line as Low(1), Medium(2), High(3) sensitivity to compound",[1]; Colon HCT-15 CL4015,2
same,"classification of cell line as Low(1), Medium(2), High(3) sensitivity to compound",[1]; Colon HCT-116 CL4003,2
same,"classification of cell line as Low(1), Medium(2), High(3) sensitivity to compound",[1]; Colon HT29(I) CL4001,1
same,"classification of cell line as Low(1), Medium(2), High(3) sensitivity to compound",[1]; Colon KM12 CL4017,2
same,"classification of cell line as Low(1), Medium(2), High(3) sensitivity to compound",[1]; Colon SW-620 CL4009,2
same,"classification of cell line as Low(1), Medium(2), High(3) sensitivity to compound",[1]; Leukemia CCRF-CEM(I) CL7003,2
same,"classification of cell line as Low(1), Medium(2), High(3) sensitivity to compound",[1]; Leukemia HL-60(I) CL7008,2
same,"classification of cell line as Low(1), Medium(2), High(3) sensitivity to compound",[1]; Leukemia K562(I) CL7005,2
same,"classification of cell line as Low(1), Medium(2), High(3) sensitivity to compound",[1]; Leukemia MOLT-4 CL7006,3
same,"classification of cell line as Low(1), Medium(2), High(3) sensitivity to compound",[1]; Leukemia RPMI-8226(I) CL7010,2
same,"classification of cell line as Low(1), Medium(2), High(3) sensitivity to compound",[1]; Leukemia SR CL7019,3
same,"classification of cell line as Low(1), Medium(2), High(3) sensitivity to compound",[1]; Melanoma LOX IMVI CL10001,2
same,"classification of cell line as Low(1), Medium(2), High(3) sensitivity to compound",[1]; Melanoma M14 CL10014,3
same,"classification of cell line as Low(1), Medium(2), High(3) sensitivity to compound",[1]; Melanoma MALME-3M CL10002,2
same,"classification of cell line as Low(1), Medium(2), High(3) sensitivity to compound",[1]; Melanoma SK-MEL-2 CL10005,2
same,"classification of cell line as Low(1), Medium(2), High(3) sensitivity to compound",[1]; Melanoma SK-MEL-28 CL10008,1
same,sensitivity classification Low(1)/Medium(2)/High(3),[1]; NSCLC NCI-H23(I) CL1001,2
same,sensitivity classification Low(1)/Medium(2)/High(3),[1]; NSCLC NCI-H332M CL1017,1
same,sensitivity classification Low(1)/Medium(2)/High(3),[1]; NSCLC NCI-H460 CL1021,3
same,sensitivity classification Low(1)/Medium(2)/High(3),[1]; NSCLC NCI-H522 CL1003,2
same,sensitivity classification Low(1)/Medium(2)/High(3),[1]; Ovarian IGROV1 CL6010,1
same,sensitivity classification Low(1)/Medium(2)/High(3),[1]; Ovarian OVCAR-3 CL6001,1
same,sensitivity classification Low(1)/Medium(2)/High(3),[1]; Ovarian OVCAR-4 CL6002,1
same,sensitivity classification Low(1)/Medium(2)/High(3),[1]; Ovarian OVCAR-5 CL6003,1
same,sensitivity classification Low(1)/Medium(2)/High(3),[1]; Ovarian OVCAR-8 CL6005,2
same,sensitivity classification Low(1)/Medium(2)/High(3),[1]; Ovarian SK-OV-3 CL6011,2
same,sensitivity classification Low(1)/Medium(2)/High(3),[1]; Prostate DU-145 CL11003,3
same,sensitivity classification Low(1)/Medium(2)/High(3),[1]; Prostate PC-3(I) CL11001,3
same,sensitivity classification Low(1)/Medium(2)/High(3),[1]; Renal 786-0 CL9018,2
same,sensitivity classification Low(1)/Medium(2)/High(3),[1]; Renal A498 CL9013,2
same,sensitivity classification Low(1)/Medium(2)/High(3),[1]; Renal ACHN CL9023,3
same,sensitivity classification Low(1)/Medium(2)/High(3),[1]; Renal CAKI-1 CL9015,2
same,sensitivity classification Low(1)/Medium(2)/High(3),[1]; Renal RXF-393 CL9016,2
same,sensitivity classification Low(1)/Medium(2)/High(3),[1]; Renal SN12C CL9008,2
same,sensitivity classification Low(1)/Medium(2)/High(3),[1]; Renal TK10 CL9024,2
same,sensitivity classification Low(1)/Medium(2)/High(3),[1]; Renal UO-31 CL9004,1
same,−Log (GI50),[2]; Melanoma SK-MEL-2 CL10005,4.5
same,−Log (GI50),[2]; Melanoma SK-MEL-5 CL10007,5.0
same,−Log (GI50),[2]; Melanoma SK-MEL-28 CL10008,4.4
same,−Log (GI50),[2]; Melanoma UACC-62 CL10020,4.9
same,−Log (GI50),[2]; Melanoma UACC-257 CL10021,4.2
same,−Log (GI50),[2]; NSCLC A549/ATCC CL1004,5.2
same,−Log (GI50),[2]; NSCLC EKVX CL1008,4.4
same,−Log (GI50),[2]; NSCLC HOP-62 CL1026,5.5
same,−Log (GI50),[2]; NSCLC HOP-92 CL1029,4.8
same,−Log (GI50),[2]; NSCLC NCI-H226 CL1013,5.2
